From US20110136193A1, “METHOD FOR PRODUCING BUTANOL USING EXTRACTIVE FERMENTATION WITH OSMOLYTE ADDITION” (BUTAMAX(TM) ADVANCED BIOFUELS LLC, priority 2009, published 2011)

B1: sadB: butanol dehydrogenase from Achromobacter xylosoxidans (protein SEQ ID NO: 10), expressed in E. coli Mach 1 cells (protein)
chain: MKALVYHGDHKISLEDKPKPTLQKPTDVVVRVLKTTICGTDLGIYKGKNPEVADGRILGHEGVGVIEEVGESVTQFKKGDKVLISCVTSCGSCDYCKKQLYSHCRDGGWILGYMIDGVQAEYVRIPHADNSLYKIPQTIDDEIAVLLSDILPTGHEIGVQYGNVQPGDAVAIVGAGPVGMSVLLTAQFYSPSTIIVIDMDENRLQLAKELGATHTINSGTENVVEAVHRIAAEGVDVAIEAVGIPATWDICQEIVKPGAHIANVGVHGVKVDFEIQKLWIKNLTITTGLVNTNTTPMLMKVASTDKLPLKKMITHRFELAEIEHAYQVFLNGAKEKAMKIILSNAGAA
modifications: Achromobacter xyloxidans

Key:
[1] = Partition coefficient (Kp) of isobutanol between oleyl alcohol extractant and sucrose-supplemented basal fermentation medium; assay type: physicochemical; settings: oleyl alcohol / BFM, 30° C.
Method: The purpose of this Example was to evaluate the effect of sucrose concentrations in the fermentation medium on the partition coefficient (Kp) of isobutanol when oleyl alcohol was used as the extractant. The basal fermentation medium (BFM) typically used in E. coli fermentations was used as the fermentation medium in this Example.
The following experimental procedure was used to generate the data in Table 3. In these Kp measurement experiments, a specified amount of sucrose was added as an osmolyte to the basal fermentation medium. To 30 mL of the sucrose-supplemented BFM, 10 mL of isobutanol rich oleyl alcohol (OA) extractant containing 168 g/L of isobutanol was added and mixed vigorously for 4 and 8 hours at 30° C. with shaking at 250 rpm in a table top shaker (Innova 4230, New Brunswick scientific, Edison, N.J.) to reach equilibrium between the two phases. The aqueous and organic phases in each flask were separated by decantation. The aqueous phase was centrifuged (2 minutes on 13,000 rpm with an Eppendorf centrifuge model 5415R) to remove residual extractant phase and the supernatant analyzed for glucose and isobutanol by HPLC.
Partition coefficients (Kp) for isobutanol distribution between the organic and aqueous phases were calculated from the known amount of isobutanol added to the flask and the isobutanol concentration data measured in the aqueous phase. The concentration of isobutanol in the extractant phase was determined by mass balance. The partition coefficient was determined as the ratio of isobutanol concentration in the organic and the aqueous phase, i.e., Kp=[Isobutanol]Organic phase/[isobutanol]Aqueous phase. Each data point corresponding to a specified level of sucrose as shown in Table 3 was repeated twice and values for Kp reported as the average of the two flasks.

[2] = Kp of isobutanol in an oleyl alcohol/aqueous system (general statement); assay type: physicochemical; settings: no added osmolyte
Source text: Addition of organic extractants like oleyl alcohol into the fermentor during the production stage extracts butanol from the aqueous phase which alleviates its inhibitory effect on the microorganism resulting in higher rate and titer of isobutanol fermentation. Fermentation rate in this two phase system also slows down once the aqueous phase concentration of isobutanol reaches an inhibitory threshold level. In the presence of the extractant (oleyl alcohol) in the fermentor, the aqueous concentration of isobutanol is dictated by the partitioning coefficient (Kp) of isobutanol between the two phases. In the case of an oleyl alcohol/aqueous system, Kp is in the range of 3.5-4.5. A significant increase in isobutanol rate and titer can be achieved if Kp for isobutanol can be increased during fermentation such that the aqueous concentration of isobutanol drops below the inhibitory threshold level.

[3] = Activity of the enzyme expressed from the sadB gene in cell-free extracts; assay type: biochemical; settings: cell-free extracts of E. coli Mach1/pTrc99a::sadB; isobutyraldehyde as the standard
Method: The sadB coding region was then cloned into the vector pTrc99a (Amann et al., Gene 69: 301-315, 1988). The pCR4Blunt::sadB was digested with EcoRI, releasing the sadB fragment, which was ligated with EcoRI-digested pTrc99a to generate pTrc99a::sadB. This plasmid was transformed into E. coli Mach 1 cells and the resulting transformant was named Mach1/pTrc99a::sadB. The activity of the enzyme expressed from the sadB gene in these cells was determined to be 3.5 mmol/min/mg protein in cell-free extracts when analyzed using isobutyraldehyde as the standard.

Molecule	Kp ([1]; sucrose added 0 moles/L, total sugars 0.17 moles/L)	Kp ([1]; sucrose added 0.03 moles/L, total sugars 0.20 moles/L)	Kp ([1]; sucrose added 0.09 moles/L, total sugars 0.26 moles/L)	Kp ([1]; sucrose added 0.17 moles/L, total sugars 0.34 moles/L)	Kp ([1]; sucrose added 0.26 moles/L, total sugars 0.43 moles/L)	Kp ([1]; sucrose added 0.33 moles/L, total sugars 0.50 moles/L)	Kp ([1]; sucrose added 0.51 moles/L, total sugars 0.68 moles/L)	Kp ([1]; sucrose added 0.67 moles/L, total sugars 0.84 moles/L)	Kp ([1]; sucrose added 1.00 moles/L, total sugars 1.17 moles/L)	Kp ([1]; sucrose added 1.33 moles/L, total sugars 1.50 moles/L)	Kp ([1]; sucrose added 2.00 moles/L, total sugars 2.17 moles/L)	partitioning coefficient (Kp) of isobutanol between the two phases [2]	activity of the enzyme expressed from the sadB gene [3] [mmol/min/mg protein]
CC(C)CO [isobutanol]	4.35	4.44	4.41	4.60	4.69	5.09	5.21	5.85	6.85	7.77	10.69	3.5-4.5	–
B1	–	–	–	–	–	–	–	–	–	–	–	–	3.5
